This assay addresses T1, human RIPK1 (1-375) (Homo sapiens, UniProt Q13546).
T1 construct: human RIPK1 (1-375) gene; GST; made in house; host or cells: Sf-9 insect cells
T1 sequence (Q13546 1-375): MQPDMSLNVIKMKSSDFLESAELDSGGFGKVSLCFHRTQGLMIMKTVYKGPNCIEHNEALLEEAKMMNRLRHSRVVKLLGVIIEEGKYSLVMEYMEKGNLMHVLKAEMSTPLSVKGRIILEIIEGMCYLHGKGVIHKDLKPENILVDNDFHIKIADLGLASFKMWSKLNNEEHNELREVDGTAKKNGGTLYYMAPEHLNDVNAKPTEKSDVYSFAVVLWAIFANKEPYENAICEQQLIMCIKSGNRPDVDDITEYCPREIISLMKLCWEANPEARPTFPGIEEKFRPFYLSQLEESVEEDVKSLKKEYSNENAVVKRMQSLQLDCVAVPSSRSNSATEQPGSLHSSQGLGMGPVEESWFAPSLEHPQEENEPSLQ
Description: Human RIPK1 enzyme inhibitory effect (ADP-Glo Kinase Assay). In kind it is biochemical. As to conditions: read-out: human RIPK1 enzyme inhibitory effect at 10 μM (% inhibition), 10 μM test compound; well without enzyme = 100% inhibition. The protocol: Experimental Example 1: Human RIPK1 Enzyme Inhibitory Effect
Enzyme was prepared by transducing human RIPK1 (1-375) gene to Sf-9 insect cells, and purifying using GST affinity column, and enzyme activity evaluation was performed using the enzyme. The enzyme was used after preservation at −70° C. The RIPK1 enzyme inhibitory activity of the test compound was measured using ADP-Glo™ Kinase Assay (Promega) according the following experiment methods. The test compound diluted with assay buffer (25 mM HEPES (pH 7.5), 10 mM MgCl2, 0.01% Tween-20, 2 mM DTT) was added to 384 well plate by each 2 μL. Next, RIPK1 enzyme solution diluted with the assay buffer was added thereto by each 2 μL, and the mixture was incubated at room temperature for 20 min. After the incubation, 0.6 mM ATP solution was added thereto by each 2 μL to initiate an enzyme reaction. The mixture was incubated at room temperature for 120 min, and ADP-Glo solution prepared according to Promega protocol was added to the 384 well plate by each 3 μL, and the reaction was performed at room temperature for 40 min. Then, Kinase-Detection solution was added to the 384 well plate by each 6 μL, and the reaction was performed at room temperature for 40 min. After the reaction, the luminescence intensity was measured by plate reader Envision (PerkinElmer).
(ADP-Glo turns the ADP formed in a reaction into a luminescent signal.)

Each structure is given as a SMILES string.

As for `CN1C(=O)[C@@H](N2CCc3cn(Cc4ccccc4)nc3C2=O)COc2cc(C#N)ccc21` [Example 13, (3S)-3-(2-benzyl-7-oxo-2,4,5,7-tetrahydro-6H-pyrazolo[3,4-c]pyridin-6-yl)-5-methyl-4-oxo-2,3,4,5-tetrahydro-1,5-benzoxazepine-8-carbonitrile], the inhibition at 10 µM was 99%.

In the case of `CN1C(=O)[C@@H](N2CCc3cn(Cc4ccccc4)nc3C2=O)COc2ccc(C#N)cc21` [Example 14, (3S)-3-(2-benzyl-7-oxo-2,4,5,7-tetrahydro-6H-pyrazolo[3,4-c]pyridin-6-yl)-5-methyl-4-oxo-2,3,4,5-tetrahydro-1,5-benzoxazepine-7-carbonitrile], the inhibition at 10 µM was determined as 100%.

For `O=C1Nc2ccccc2CCC1N1Cc2sc(Cc3ccccc3)nc2C1=O` (stereo not shown) [Example 15, 3-(2-benzyl-4-oxo-4,6-dihydro-5H-pyrrolo[3,4-d][1,3]thiazol-5-yl)-1,3,4,5-tetrahydro-2H-1-benzazepin-2-one], the inhibition at 10 µM turned out to be 91%.

For `CN1C(=O)[C@@H](N2CCc3sc(Cc4ccccc4)nc3C2=O)COc2ccccc21` [Example 16, (3S)-3-(2-benzyl-4-oxo-6,7-dihydro[1,3]thiazolo[4,5-c]pyridin-5(4H)-yl)-5-methyl-2,3-dihydro-1,5-benzoxazepin-4(5H)-one], the inhibition at 10 µM is 98%.

In the case of `CN1C(=O)[C@@H](N2CCc3ccc(Cc4ccccc4)nc3C2=O)COc2ccccc21` [Example 17, (3S)-3-(2-benzyl-8-oxo-5,8-dihydro-1,7-naphthyridin-7(6H)-yl)-5-methyl-2,3-dihydro-1,5-benzoxazepin-4(5H)-one], the inhibition at 10 µM worked out at 97%.

On to `O=C1Nc2ccccc2CCC1N1CCn2nc(Cc3ccccc3)cc2C1=O` (stereo not shown) [Example 18, 3-(2-benzyl-4-oxo-6,7-dihydropyrazolo[1,5-a]pyrazin-5(4H)-yl)-1,3,4,5-tetrahydro-2H-1-benzazepin-2-one], for which the inhibition at 10 µM is 72%.

Take `CN1C(=O)[C@@H](N2CCc3cn(Cc4ccccc4)nc3C2=O)CSc2ccccc21` [Example 19, (3R)-3-(2-benzyl-7-oxo-2,4,5,7-tetrahydro-6H-pyrazolo[3,4-c]pyridin-6-yl)-5-methyl-2,3-dihydro-1,5-benzothiazepin-4(5H)-one]: the inhibition at 10 µM is 99%.

`CN1C(=O)[C@@H](N2CCc3cn(Cc4ccc(Cl)cc4)nc3C2=O)COc2ccccc21` [Example 20, (3S)-3-(2-(4-chlorobenzyl)-7-oxo-2,4,5,7-tetrahydro-6H-pyrazolo[3,4-c]pyridin-6-yl)-5-methyl-2,3-dihydro-1,5-benzoxazepin-4(5H)-one]: the inhibition at 10 µM was determined as 100%.

Turning to `CC(c1ccccc1)n1cc2c(n1)C(=O)N([C@H]1COc3ccccc3N(C)C1=O)CC2` (stereo partly drawn) [Example 21, (3S)-5-methyl-3-(7-oxo-2-(1-phenylethyl)-2,4,5,7-tetrahydro-6H-pyrazolo[3,4-c]pyridin-6-yl)-2,3-dihydro-1,5-benzoxazepin-4(5H)-one], the inhibition at 10 µM was 100%.

Turning to `Cc1ccccc1Cn1cc2c(n1)C(=O)N([C@H]1COc3ccccc3N(C)C1=O)CC2` [Example 22, (3S)-5-methyl-3-(2-(2-methylbenzyl)-7-oxo-2,4,5,7-tetrahydro-6 H-pyrazolo[3,4-c]pyridin-6-yl)-2,3-dihydro-1,5-benzoxazepin-4(5H)-one], the inhibition at 10 µM was determined as 100%.

On to `CN1C(=O)[C@@H](N2CCc3cn(CCc4ccccc4)nc3C2=O)COc2ccccc21` [Example 23, (3S)-5-methyl-3-(7-oxo-2-(2-phenylethyl)-2,4,5,7-tetrahydro-6H-pyrazolo[3,4-c]pyridin-6-yl)-2,3-dihydro-1,5-benzoxazepin-4(5H)-one], for which the inhibition at 10 µM was 91%.

Turning to `CN1C(=O)[C@@H](N2CCc3cn(Cc4c(F)cccc4F)nc3C2=O)COc2ccccc21` [Example 24, (3S)-3-(2-(2,6-difluorobenzyl)-7-oxo-2,4,5,7-tetrahydro-6H-pyrazolo[3,4-]pyridin-6-yl)-5-methyl-2,3-dihydro-1,5-benzoxazepin-4(5H)-one], the inhibition at 10 µM came to 101%.

In the case of `CN1C(=O)[C@@H](N2CCc3cn(Cc4ccccc4Cl)nc3C2=O)COc2ccccc21` [Example 25, (3S)-3-(2-(2-ohlorobenzy)-7-oxo-2,4,5,7-tetrahydro-6H-pyrazolo[3,4-c]pyridin-6-yl)-5-methyl-2,3-dihydro-1,5-benzoxazepin-4(5H)-one], the inhibition at 10 µM is 100%.

For `CN1C(=O)[C@@H](N2CCc3cn(Cc4cccc(Cl)c4)nc3C2=O)COc2ccccc21` [Example 26, (3S)-3-(2-(3-chlorobenzyl)-7-oxo-2,4,5,7-tetrahydro-6H-pyrazolo[3,4-c]pyridin-6-yl)-5-methyl-2,3-dihydro-1,5-benzoxazepin-4(5H)-one], the inhibition at 10 µM was found to be 100%.

As for `CN1C(=O)[C@@H](N2CCc3cn(CC4CC4)nc3C2=O)COc2ccccc21` [Example 27, (3S)-3-(2-(cyclopropylmethyl)-7-oxo-2,4,5,7-hydro-6H-pyrazolo[3,4-c]pyridin-6-yl)-5-methyl-2,3-dihydro-1,5-benzoxazepin-4(5H)-one], the inhibition at 10 µM is 93%.

As for `CN1C(=O)[C@@H](N2CCc3cn(Cc4ccccc4C#N)nc3C2=O)COc2ccccc21` [Example 28, 2-((6-((3S)-5-methyl-4-oxo-2,3,4,5-tetrahydro-1,5-benzoxazepin-3-yl)-7-oxo-4,5,6,7-tetrahydro-2H-pyrazolo[3,4-c]pyridin-2-yl)methyl)benzonitrile], the inhibition at 10 µM was found to be 99%.

Take `CN1C(=O)[C@@H](N2CCc3cn(Cc4cccc(C#N)c4)nc3C2=O)COc2ccccc21` [Example 29, 3-((6-((3S)-5-methyl-4-oxo-2,3,4,5-tetrahydro-1,5-benzoxazepin-3-yl)-7-oxo-4,5,6,7-tetrahydro-2H-pyrazolo[3,4-c]pyridin-2-yl)methyl)benzonitrile]: the inhibition at 10 µM came out at 99%.

Regarding `CN1C(=O)[C@@H](N2CCc3cn(Cc4ccc(C#N)cc4)nc3C2=O)COc2ccccc21` [Example 30, 4-((6-((3S)-5-methyl-4-oxo-2,3,4,5-tetrahydro-1,5-benzoxazepin-3-yl)-7-oxo-4,5,6,7-tetrahydro-2H-pyrazolo[3,4-c]pyridin-2-yl)methyl)benzonitrile], the inhibition at 10 µM worked out at 97%.

On to `CN1C(=O)[C@@H](N2CCc3cn(CC4CCC4)nc3C2=O)COc2ccccc21` [Example 31, (3S)-3-(2-(cyclobutylmethyl)-7-oxo-2,4,5,7-tetrahydro-6H-pyrazolo[3,4-c]pyridin-6-yl)-5-methyl-2,3-dihydro-1,5-benzoxazepin-4(5H)-one], for which the inhibition at 10 µM was determined as 98%.

For `CN1C(=O)[C@@H](N2CCc3cn(Cc4ccccn4)nc3C2=O)COc2ccccc21` [Example 32, (3S)-5-methyl-3-(7-oxo-2-(pyridin-2-ylmethyl)-2,4,5,7-tetrahydro-6H-pyrazolo[3,4-c]pyridin-6-yl)-2,3-dihydro-1,5-benzoxazepin-4(5H)-one], the inhibition at 10 µM came out at 97%.

In the case of `CN1C(=O)[C@@H](N2CCc3cn(CC4CC(F)(F)C4)nc3C2=O)COc2ccccc21` [Example 33, (3S)-3-(2-((3,3-difluorocyclobutyl)methyl)-7-oxo-2,4,5,7-tetrahydro-6H-pyrazolo[3,4-c]pyridin-6-yl)-5-methyl-2,3-dihydro-1,5-benzoxazepin-4(5H)-one], the inhibition at 10 µM came to 95%.

For the molecule `CN1C(=O)[C@@H](N2CCc3cn(Cc4ccoc4)nc3C2=O)COc2ccccc21` [Example 34, (3S)-3-(2-(3-furylmethyl)-7-oxo-2,4,5,7-tetrahydro-6H-pyrazolo[3,4-c]pyridin-6-yl)-5-methyl-2,3-dihydro-1,5-benzoxazepin-4(5H)-L-one], the inhibition at 10 µM worked out at 99%.

Regarding `CN1C(=O)[C@@H](N2CCc3cn(Cc4ncco4)nc3C2=O)COc2ccccc21` [Example 35, (3S)-5-methyl-3-(2-(1,3-oxazol-2-ylmethyl)-7-oxo-2,4,5,7-tetrahydro-6H-pyrazolo[3,4-c]pyridin-6-yl)-2,3-dihydro-1,5-benzoxazepin-4(5H)-one], the inhibition at 10 µM came out at 96%.

As for `CN1C(=O)[C@@H](N2CCc3cn(Cc4ncccn4)nc3C2=O)COc2ccccc21` [Example 36, (3S)-5-methyl-3-(7-oxo-2-(pyrimidin-2-ylmethyl)-2,4,5,7-tetrahydro-6H-pyrazolo[3,4-c]pyridin-6-yl)-2,3-dihydro-1,5-benzoxazepin-4(5H)-one], the inhibition at 10 µM is 86%.

Turning to `CN1C(=O)[C@@H](N2CCc3cn(CC4CCCC4)nc3C2=O)COc2ccccc21` [Example 37, (3S)-3-(2-(cyclopentylmethyl)-7-oxo-2,4,5,7-tetrahydro-6H-pyrazolo[3,4-c]pyridin-yl)-5-methyl-2,3-dihydro-1,5-benzoxazepin-4(5H)-one], the inhibition at 10 µM is 100%.

What is called inhibition is the drop in the measured response relative to a control, in per cent.
